From patent publication US20220401586A1, “CARBON QUANTUM DOTS AND USES THEREOF” (CNANO MEDICINE CORP., priority 2019, published 2022)
Counter-ions that a name gives are not always drawn.

What was measured:
[1] = target: T1, LAT1 (Homo sapiens, UniProt Q01650); assay: Flow cytometry: uptake rate of LAAM TC-CQDs after BCH pre-treatment; assay type: cell-based; details: across HeLa, A549, PANC-1, MCF-7, MDA-MB-231, MDA-MB-231 SP cells
T1 construct: we treated HeLa cells with an excess of leucine (Leu), phenylalanine (Phe), or glycine (Gly) prior to adding LAAM TC-CQDs; endogenous in cells; host or cells: HeLa (also A549, PANC-1, MCF-7, MDA-MB-231, MDA-MB-231 SP in the flow cytometry)
T1 sequence (Q01650 whole entry): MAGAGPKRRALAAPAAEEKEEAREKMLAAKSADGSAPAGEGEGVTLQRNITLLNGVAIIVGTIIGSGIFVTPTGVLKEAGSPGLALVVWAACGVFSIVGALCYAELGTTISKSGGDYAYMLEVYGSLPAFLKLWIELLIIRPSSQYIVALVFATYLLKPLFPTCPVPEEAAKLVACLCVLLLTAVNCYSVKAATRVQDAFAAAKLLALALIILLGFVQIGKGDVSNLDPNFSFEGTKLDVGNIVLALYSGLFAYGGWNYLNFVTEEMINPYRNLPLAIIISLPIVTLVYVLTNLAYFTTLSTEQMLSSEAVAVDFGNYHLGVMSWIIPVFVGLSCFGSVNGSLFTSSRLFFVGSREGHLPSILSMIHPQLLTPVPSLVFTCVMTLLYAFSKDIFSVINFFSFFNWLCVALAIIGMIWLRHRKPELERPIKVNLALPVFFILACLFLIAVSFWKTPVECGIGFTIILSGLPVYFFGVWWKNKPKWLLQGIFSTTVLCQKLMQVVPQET
T1 sequence (P08195 102-630 partner): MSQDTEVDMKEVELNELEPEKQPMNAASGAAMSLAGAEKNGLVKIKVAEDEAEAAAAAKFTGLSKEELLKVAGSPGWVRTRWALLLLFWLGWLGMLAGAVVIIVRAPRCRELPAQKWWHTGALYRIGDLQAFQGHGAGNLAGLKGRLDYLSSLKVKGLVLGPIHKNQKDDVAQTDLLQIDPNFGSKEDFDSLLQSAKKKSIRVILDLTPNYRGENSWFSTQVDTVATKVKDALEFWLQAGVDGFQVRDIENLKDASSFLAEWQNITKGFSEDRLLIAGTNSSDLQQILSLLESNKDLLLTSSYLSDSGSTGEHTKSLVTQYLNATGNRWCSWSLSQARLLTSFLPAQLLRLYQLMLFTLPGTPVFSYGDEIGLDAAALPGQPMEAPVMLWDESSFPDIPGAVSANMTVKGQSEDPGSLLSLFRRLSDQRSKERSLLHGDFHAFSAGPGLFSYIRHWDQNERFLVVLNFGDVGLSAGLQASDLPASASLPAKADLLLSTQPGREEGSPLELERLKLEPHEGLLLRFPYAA
Source text: (§1) To investigate the mechanism that accounts for the cellular uptake of LAAM TC-CQDs, we treated HeLa cells with an excess of leucine (Leu), phenylalanine (Phe), or glycine (Gly) prior to adding LAAM TC-CQDs. Except Gly, both Leu and Phe are known to be high-affinity substrates to LAT1^27. […] This hypothetical mechanism is supported by several lines of evidence.
Flow cytometry. MDA-MB-231 SP cells were sorted according to our previously reported methods^22. Briefly, cells harvested at about 85% confluence were resuspended in RPMI-1640 supplemented with 2% fetal bovine serum (FBS) at a density of 1×10^6 cells/mL and incubated with Hoechst 33342 at a concentration of 5 μg/mL at 37° C. After 90 min, the cells were suspended in cold PBS at a concentration of 1×10^6 cells/mL, filtered through a 40 μm cell strainer to remove cell aggregates, stained with 1 μg/mL propidium iodide (PI), and analyzed and sorted using a FACSDiva (Becton Dickinson, USA). […] The cells were washed 3 times with cold PBS, resuspended in […] of cold PBS, and analyzed by a FACScan flow cytometer (BD, Ann Arbor, Mich.). […] After 12 h, the cells were washed with fresh medium, trypsinized, resuspended in PBS with 0.5% FBS, and analyzed using a BD FACSCalibur (BD Biosciences, USA). Data were analyzed using FlowJo 7.6.

[2] = target: T1, LAT1; assay: LCSM: effect of Leu, Phe, Gly or BCH pre-treatment on uptake of LAAM TC-CQDs; assay type: cell-based; details: HeLa cells, excess of the agent prior to adding LAAM TC-CQDs
Experimental: as §1
Confocal laser scanning microscope imaging. […] After 8 h, cells were washed with PBS twice, fixed with 4% polyformaldehyde for 30 min at room temperature, followed by addition of DAPI for cell nuclei staining. Finally, the slides were washed three times, fixed, sealed with cover glasses, and imaged with excitation/emission: 561/700 using a confocal laser scanning microscopy (Leica TCS-SP8, Germany). To determine the effects of Leu, Phe, Gly or BCH on CQD uptake, HeLa cells were placed and treated with Leu, Phe, Gly or BCH. Four hours later, LAAM TC-CQDs were added to cells. After an additional 8 h, the cells were washed, fixed, and imaged.

[3] = system: CCC-ESF-1 cells; assay: Cellular toxicity test (CCK-8); assay type: cell-based, Human; details: concentration equivalent to 5 ug/mL TPTC
Experimental: (§2) Cellular toxicity tests. […] After 12 h, the cultured medium was removed, and washed with PBS. One hundred microliters of fresh medium containing 10 μL CCK-8 (Sigma) was added to each well. After 2 h incubation at 37° C., the absorbance at 450 nm was measured using a microplate reader.

[4] = system: HeLa cells; assay: Cellular toxicity test (CCK-8); assay type: cell-based, Human; details: concentration equivalent to 5 ug/mL TPTC
Experimental: as §2

[5] = Toxicity evaluation in mice; assay type: in vivo
Experimental: Toxicity evaluation in mice. Female BALB/c mice were intravenously administered with TPTC (10 mg/kg, 0.05 mL per mice) or TPTC/TC-CQDs (10 mg/kg for TPTC, 0.05 mL per mice) (n=5). Mice treated with saline were used as controls. At selected time points, blood samples were collected in heparinized microhematocrit tubes and centrifuged at a speed of 3000 rpm for 10 min. At the end of the study, mice were euthanized. Major organs, including the heart, liver, spleen, kidney and lung were excised, fixed in formalin, and analyzed.

[6] = in vivo; details: BALB/c, mouse, iv
Experimental: We determined the pharmacokinetics of TPTC/TC-CQDs in mice bearing HeLa tumors. TPTC or TPTC/TC-CQDs were administered intravenously at a dose equivalent to 10 mg/kg TPTC, and the blood was collected at various time points. TPTC in the plasma was quantified by high performance liquid chromatography (HPLC). […] A second cohort of mice received the same treatment was subjected to characterization for biodistribution of TPTC based on TPTC fluorescence.
The same lipid composition was used in several FDA-approved liposomal formulations, including Doxil© 38. […] The blood was collected at various time points. TPTC in the plasma was quantified by high performance liquid chromatography (HPLC).

[7] = system: HeLa tumors; assay: Therapeutic evaluation in mice bearing HeLa tumors; assay type: in vivo; details: for tumors fifteen days later: intravenous
Experimental: We assessed TPTC/TC-CQDs for cancer treatment using mice bearing HeLa tumors. […]
Therapeutic evaluation in tumor-bearing mice. HeLa cells were subcutaneously inoculated into female BALB/c mice. When the tumor volumes reached ˜100 mm^3, the mice were intravenously administered with, saline, TPTC or TPTC/TC-CQDs (n=5). Changes in tumor volume and body weight were monitored daily. The volume of the tumor was calculated according to the following formula: V=D×d^2/2 (where D and d are the longest and shortest diameters of tumor, respectively, measured using a vernier caliper). Relative tumor volumes were calculated as V/V0(V0 is the initial tumor volume when the treatment was started).

[8] = in vivo; details: BALB/c, mouse
Experimental: We repeated the characterization studies using A549 tumours. Experiments were carried out according to the same procedures as described above.

[9] = 10 mg/kg TPTC (or equivalent) at days 1, 4, 8, and 12

Structure (SMILES): NC1(C(=O)O)CC2CCC1C2 (stereo not shown) [BCH, 2-aminobicyclo-(2,2,1)-heptane-2-carboxylic acid]
- cellular uptake rate of LAAM TC-CQDs after pre-treatment with BCH [1]: ~20%
- effect of pre-treatment on uptake of LAAM TC-CQDs [2]: dramatically reduces

Structure (SMILES): NCC(=O)O [Gly, glycine]
- effect of pre-treatment on uptake of LAAM TC-CQDs [2]: not

Structure (SMILES): CC(C)C[C@H](N)C(=O)O [Leu, leucine]
- effect of pre-treatment on uptake of LAAM TC-CQDs [2]: significantly inhibited

Structure (SMILES): N[C@@H](Cc1ccccc1)C(=O)O [Phe, phenylalanine]
- effect of pre-treatment on uptake of LAAM TC-CQDs [2]: significantly inhibited

Structure (SMILES): CC[C@@]1(O)C(=O)OCc2c1cc1n(c2=O)Cc2cc3c(CN(C)C)c(O)ccc3nc2-1 [TPTC, topotecan hydrochloride]
- toxicity to non-cancerous CCC-ESF-1 cells [3]: inhibited both cells at a comparable efficiency
- toxicity to HeLa cells [4]: inhibited both cells at a comparable efficiency
- H&E analysis of major organs [5]: obvious myocardial fiber rupture, diffuse ballooning degeneration of hepatocytes, pulmonary hyperemia, and focal tubular necrosis
- body weight ([5]; throughout the study): weight loss was observed
- half-life ([6]; 2 mg/kg): 5.4 min
- half-life ([6]; 10 mg/kg): 5 min
- median survival ([7]; 2 mg/kg TPTC (or equivalent)): 30 days
- survival [7, 9]: 40 days
- tumors fifteen days later ([7]; 2 mg/kg TPTC (or equivalent) at days 1, 4, 8, and 12): continuously grew
- tumors fifteen days later [7, 9]: continuously grew
- half-life [8]: 5.9 min
